Measurements taken from ChEMBL document CHEMBL4020788, “Synthesis, SAR and molecular docking studies of benzo[d]thiazole-hydrazones as potential antibacterial and antifungal agents” (2017).
The source made the active and inactive calls. The calls are words filed in the database; no cut-off is given here.

Tests used:
Assay type in all cases: functional
[1] = test system: Staphylococcus aureus; experiment: Antibacterial activity against Staphylococcus aureus at 25 ug/ml after 24 hrs by agar well diffusion method; conditions: for zone of inhibition at 25 µg/mL: read-out: DIZ
[2] = test system: Staphylococcus aureus; experiment: Antibacterial activity against Staphylococcus aureus at 50 ug/ml after 24 hrs by agar well diffusion method; conditions: for zone of inhibition at 50 µg/mL: read-out: DIZ
[3] = test system: Staphylococcus aureus; experiment: Antibacterial activity against Staphylococcus aureus at 75 ug/ml after 24 hrs by agar well diffusion method; conditions: for zone of inhibition at 75 µg/mL: read-out: DIZ
[4] = test system: Staphylococcus aureus; experiment: Antibacterial activity against Staphylococcus aureus at 100 ug/ml after 24 hrs by agar well diffusion method; conditions: for zone of inhibition at 100 µg/mL: read-out: DIZ
[5] = test system: Bacillus subtilis; experiment: Antibacterial activity against Bacillus subtilis at 25 ug/ml after 24 hrs by agar well diffusion method
[6] = test system: Bacillus subtilis; experiment: Antibacterial activity against Bacillus subtilis at 50 ug/ml after 24 hrs by agar well diffusion method
[7] = test system: Bacillus subtilis; experiment: Antibacterial activity against Bacillus subtilis at 75 ug/ml after 24 hrs by agar well diffusion method
[8] = test system: Bacillus subtilis; experiment: Antibacterial activity against Bacillus subtilis at 100 ug/ml after 24 hrs by agar well diffusion method
[9] = test system: Escherichia coli; experiment: Antibacterial activity against Escherichia coli at 25 ug/ml after 24 hrs by agar well diffusion method
[10] = test system: Escherichia coli; experiment: Antibacterial activity against Escherichia coli at 50 ug/ml after 24 hrs by agar well diffusion method
[11] = test system: Escherichia coli; experiment: Antibacterial activity against Escherichia coli at 75 ug/ml after 24 hrs by agar well diffusion method
[12] = test system: Escherichia coli; experiment: Antibacterial activity against Escherichia coli at 100 ug/ml after 24 hrs by agar well diffusion method
[13] = test system: Klebsiella pneumoniae; experiment: Antibacterial activity against Klebsiella pneumoniae at 25 ug/ml after 24 hrs by agar well diffusion method; conditions: for zone of inhibition at 25 µg/mL: read-out: DIZ
[14] = test system: Klebsiella pneumoniae; experiment: Antibacterial activity against Klebsiella pneumoniae at 50 ug/ml after 24 hrs by agar well diffusion method; conditions: for zone of inhibition at 50 µg/mL: read-out: DIZ
[15] = test system: Klebsiella pneumoniae; experiment: Antibacterial activity against Klebsiella pneumoniae at 75 ug/ml after 24 hrs by agar well diffusion method; conditions: for zone of inhibition at 75 µg/mL: read-out: DIZ
[16] = test system: Klebsiella pneumoniae; experiment: Antibacterial activity against Klebsiella pneumoniae at 100 ug/ml after 24 hrs by agar well diffusion method; conditions: for zone of inhibition at 100 µg/mL: read-out: DIZ
[17] = test system: Staphylococcus aureus; experiment: Antibacterial activity against methicillin resistant Staphylococcus aureus MRSA090 at 25 ug/ml after 24 hrs by agar well diffusion method; conditions: for zone of inhibition at 25 µg/mL: MRSA090, 24 h, read-out: DIZ
[18] = test system: Staphylococcus aureus; experiment: Antibacterial activity against methicillin resistant Staphylococcus aureus MRSA090 at 50 ug/ml after 24 hrs by agar well diffusion method; conditions: for zone of inhibition at 50 µg/mL: MRSA090, 24 h, read-out: DIZ
[19] = test system: Staphylococcus aureus; experiment: Antibacterial activity against methicillin resistant Staphylococcus aureus MRSA090 at 75 ug/ml after 24 hrs by agar well diffusion method; conditions: for zone of inhibition at 75 µg/mL: MRSA090, 24 h, read-out: DIZ
[20] = test system: Staphylococcus aureus; experiment: Antibacterial activity against methicillin resistant Staphylococcus aureus MRSA090 at 100 ug/ml after 24 hrs by agar well diffusion method; conditions: for zone of inhibition at 100 µg/mL: MRSA090, 24 h, read-out: DIZ
[21] = test system: Aspergillus niger; experiment: Antifungal activity against Aspergillus niger at 25 ug/ml after 48 hrs by agar well diffusion method
[22] = test system: Aspergillus niger; experiment: Antifungal activity against Aspergillus niger at 50 ug/ml after 48 hrs by agar well diffusion method
[23] = test system: Aspergillus niger; experiment: Antifungal activity against Aspergillus niger at 75 ug/ml after 48 hrs by agar well diffusion method
[24] = test system: Aspergillus niger; experiment: Antifungal activity against Aspergillus niger at 100 ug/ml after 48 hrs by agar well diffusion method
[25] = test system: Fusarium verticillioides; experiment: Antifungal activity against Fusarium moniliforme at 25 ug/ml after 48 hrs by agar well diffusion method
[26] = test system: Fusarium verticillioides; experiment: Antifungal activity against Fusarium moniliforme at 50 ug/ml after 48 hrs by agar well diffusion method
[27] = test system: Fusarium verticillioides; experiment: Antifungal activity against Fusarium moniliforme at 75 ug/ml after 48 hrs by agar well diffusion method; conditions: for zone of inhibition at 75 µg/mL: read-out: DIZ
[28] = test system: Fusarium verticillioides; experiment: Antifungal activity against Fusarium moniliforme at 100 ug/ml after 48 hrs by agar well diffusion method; conditions: for zone of inhibition at 100 µg/mL: read-out: DIZ
[29] = test system: Fusarium oxysporum; experiment: Antifungal activity against Fusarium oxysporum at 25 ug/ml after 48 hrs by agar well diffusion method
[30] = test system: Fusarium oxysporum; experiment: Antifungal activity against Fusarium oxysporum at 50 ug/ml after 48 hrs by agar well diffusion method; conditions: for zone of inhibition at 50 µg/mL: read-out: DIZ
[31] = test system: Fusarium oxysporum; experiment: Antifungal activity against Fusarium oxysporum at 75 ug/ml after 48 hrs by agar well diffusion method; conditions: for zone of inhibition at 75 µg/mL: read-out: DIZ
[32] = test system: Fusarium oxysporum; experiment: Antifungal activity against Fusarium oxysporum at 100 ug/ml after 48 hrs by agar well diffusion method; conditions: for zone of inhibition at 100 µg/mL: read-out: DIZ

`Cc1cccc2nc(N/N=C/c3ccc([N+](=O)[O-])cc3)sc12` was tested, and the zone of inhibition at 25 µg/mL [1] was 7 mm, the zone of inhibition at 50 µg/mL [2] was 9 mm and the zone of inhibition at 75 µg/mL [3] was 12 mm. The zone of inhibition at 100 µg/mL [4] was 14 mm, the “diameter of the inhibition zone (DIZ)” value [5] was “inactive” and the zone of inhibition at 50 µg/mL ([6]; read-out: DIZ) was 4 mm. For the same molecule, the zone of inhibition at 75 µg/mL ([7]; read-out: DIZ) was 8 mm, the zone of inhibition at 100 µg/mL ([8]; read-out: DIZ) was 11 mm and the zone of inhibition at 25 µg/mL ([9]; read-out: DIZ) was 4 mm. The zone of inhibition at 50 µg/mL ([10]; read-out: DIZ) was 18 mm, the zone of inhibition at 75 µg/mL ([11]; read-out: DIZ) was 11 mm and the zone of inhibition at 100 µg/mL ([12]; read-out: DIZ) was 14 mm. It also gave a zone of inhibition at 25 µg/mL [13] of 7 mm, a zone of inhibition at 50 µg/mL [14] of 11 mm and a zone of inhibition at 75 µg/mL [15] of 14 mm. The zone of inhibition at 100 µg/mL [16] was 16 mm, the zone of inhibition at 25 µg/mL [17] was 3 mm and the zone of inhibition at 50 µg/mL [18] was 7 mm. It also gave a zone of inhibition at 75 µg/mL [19] of 10 mm, a zone of inhibition at 100 µg/mL [20] of 16 mm and a zone of inhibition at 25 µg/mL ([21]; read-out: DIZ) of 6 mm. It also gave a zone of inhibition at 50 µg/mL ([22]; read-out: DIZ) of 13 mm, a zone of inhibition at 75 µg/mL ([23]; read-out: DIZ) of 17 mm and a zone of inhibition at 100 µg/mL ([24]; read-out: DIZ) of 21 mm. For the same molecule, the “diameter of the inhibition zone (DIZ)” value [25] was “inactive”, the “diameter of the inhibition zone (DIZ)” value [26] was “inactive” and the zone of inhibition at 75 µg/mL [27] was 4 mm. The zone of inhibition at 100 µg/mL [28] was 8 mm, the zone of inhibition at 25 µg/mL ([29]; read-out: DIZ) was 6 mm and the zone of inhibition at 50 µg/mL [30] was 10 mm. For the same molecule, the zone of inhibition at 75 µg/mL [31] was 14 mm and the zone of inhibition at 100 µg/mL [32] was 21 mm.
Molecule `COc1cc(/C=N/Nc2nc3cccc(C)c3s2)ccc1OCc1ccccc1` has a zone of inhibition at 25 µg/mL [1] of 7 mm, a zone of inhibition at 50 µg/mL [2] of 11 mm and a zone of inhibition at 75 µg/mL [3] of 14 mm. For the same molecule, the zone of inhibition at 100 µg/mL [4] was 18 mm, the “diameter of the inhibition zone (DIZ)” value [5] was “inactive” and the “diameter of the inhibition zone (DIZ)” value [6] was “inactive”. The “diameter of the inhibition zone (DIZ)” value [7] was “inactive”, the “diameter of the inhibition zone (DIZ)” value [8] was “inactive” and the “diameter of the inhibition zone (DIZ)” value [9] was “inactive”. The “diameter of the inhibition zone (DIZ)” value [10] was “inactive”, the “diameter of the inhibition zone (DIZ)” value [11] was “inactive” and the “diameter of the inhibition zone (DIZ)” value [12] was “inactive”. The zone of inhibition at 25 µg/mL [13] was 7 mm, the zone of inhibition at 50 µg/mL [14] was 12 mm and the zone of inhibition at 75 µg/mL [15] was 14 mm. The zone of inhibition at 100 µg/mL [16] was 17 mm, the zone of inhibition at 25 µg/mL [17] was 5 mm and the zone of inhibition at 50 µg/mL [18] was 10 mm. For the same molecule, the zone of inhibition at 75 µg/mL [19] was 12 mm, the zone of inhibition at 100 µg/mL [20] was 14 mm and the “diameter of the inhibition zone (DIZ)” value [21] was “inactive”. For the same molecule, the “diameter of the inhibition zone (DIZ)” value [22] was “inactive”, the “diameter of the inhibition zone (DIZ)” value [23] was “inactive” and the “diameter of the inhibition zone (DIZ)” value [24] was “inactive”. It also gave a zone of inhibition at 25 µg/mL ([25]; read-out: DIZ) of 4 mm, a zone of inhibition at 50 µg/mL ([26]; read-out: DIZ) of 9 mm and a zone of inhibition at 75 µg/mL [27] of 15 mm. The zone of inhibition at 100 µg/mL [28] was 20 mm, the “diameter of the inhibition zone (DIZ)” value [29] was “inactive” and the zone of inhibition at 50 µg/mL [30] was 5 mm. It also gave a zone of inhibition at 75 µg/mL [31] of 9 mm and a zone of inhibition at 100 µg/mL [32] of 14 mm.
In the case of `CC/C=N/Nc1nc2cccc(C)c2s1`, the “diameter of the inhibition zone (DIZ)” value [1] is reported as “inactive”, the “diameter of the inhibition zone (DIZ)” value [2] is reported as “inactive” and the “diameter of the inhibition zone (DIZ)” value [3] is reported as “inactive”. For the same molecule, the “diameter of the inhibition zone (DIZ)” value [4] was “inactive”, the “diameter of the inhibition zone (DIZ)” value [5] was “inactive” and the “diameter of the inhibition zone (DIZ)” value [6] was “inactive”. The “diameter of the inhibition zone (DIZ)” value [7] was “inactive”, the “diameter of the inhibition zone (DIZ)” value [8] was “inactive” and the “diameter of the inhibition zone (DIZ)” value [9] was “inactive”. The “diameter of the inhibition zone (DIZ)” value [10] was “inactive”, the “diameter of the inhibition zone (DIZ)” value [11] was “inactive” and the “diameter of the inhibition zone (DIZ)” value [12] was “inactive”. The “diameter of the inhibition zone (DIZ)” value [13] was “inactive”, the “diameter of the inhibition zone (DIZ)” value [14] was “inactive” and the “diameter of the inhibition zone (DIZ)” value [15] was “inactive”. For the same molecule, the “diameter of the inhibition zone (DIZ)” value [16] was “inactive”, the “diameter of the inhibition zone (DIZ)” value [17] was “inactive” and the “diameter of the inhibition zone (DIZ)” value [18] was “inactive”. For the same molecule, the “diameter of the inhibition zone (DIZ)” value [19] was “inactive”, the “diameter of the inhibition zone (DIZ)” value [20] was “inactive” and the “diameter of the inhibition zone (DIZ)” value [21] was “inactive”. For the same molecule, the “diameter of the inhibition zone (DIZ)” value [22] was “inactive”, the “diameter of the inhibition zone (DIZ)” value [23] was “inactive” and the “diameter of the inhibition zone (DIZ)” value [24] was “inactive”. For the same molecule, the “diameter of the inhibition zone (DIZ)” value [25] was “inactive”, the “diameter of the inhibition zone (DIZ)” value [26] was “inactive” and the “diameter of the inhibition zone (DIZ)” value [27] was “inactive”. For the same molecule, the “diameter of the inhibition zone (DIZ)” value [28] was “inactive”, the “diameter of the inhibition zone (DIZ)” value [29] was “inactive” and the “diameter of the inhibition zone (DIZ)” value [30] was “inactive”. For the same molecule, the “diameter of the inhibition zone (DIZ)” value [31] was “inactive” and the “diameter of the inhibition zone (DIZ)” value [32] was “inactive”.
